We go through ten molecules from patent US20200078379A1, “DEFEROXAMINE DERIVATIVES AS MEDICAMENTS” (BIOTECHNOLOGICKY USTAV AV CR, V.V.I., priority 2017, published 2020).

One test deals with MCF7 cells. The test is described as follows: crystal violet assay, cellular viability. In kind it is cell-based, human. The conditions noted are these: for IC50: MCF7, 48 h, read-out: IC50 cellular viability; for viability at 10 µM: MCF7, 10 μM. The method, then:
(§1) Compound 1 and compound 2 were tested in their efficacy to kill malignant MCF7 cancer cells. Briefly, 10.000 cells per well were seeded in a 96-well plat on one day and the next day selected compounds were added and incubated with the cells for 48 hrs. The cells were then fixed with 4% paraformaldehyde, stained with 0.05% crystal violet, washed with PBS, and solubilized in 1% SDS. The absorbance of the plate at 595 nm was then measured, quantifying the number of viable cells.
(§2) A number of compounds of the present invention were tested for cytotoxicity towards at least some of human breast cancer cell lines (MCF7, MDA-MB-231), human fibroblast (BJ) and murine triple negative breast cancer cell line 4T1 (Table 2).

Test [1] concerns pancreatic cell line BxPC3. Nature of the test: dose-effect relationship of drugs and mixtures, crystal violet assay, Median-Effect / Combination index. In kind it is cell-based. The conditions noted are these: for IC50: read-out: Median-Effect Plot parameter IC50. As to the method:
(§3) The potentiation of cytotoxic effect of compound 2 in combination with several cytostatics was evaluated. The dose-effect relationship of individual drugs and mixtures of compound 2 with paclitaxel, cis Pt (cis-platin), doxorubicin and fluorouracil was determined on human mammary gland cancer cell line MDA-MB-231 and pancreatic cell line BxPC3 by means of crystal violet assay. The linearized Median-Effect Plot of dose response line provided both parameters (IC50; trend line m(slope) value) of Median-Effect Equation for individual and combination treatment [ref: Theoretical basis, experimental design, and computerized simulation of synergism and antagonism in drug combination studies; Ting-Chao Chou: Pharmacol Rev. 58(3), 2006, 621-81; Erratum in Pharmacol Rev. 2007; 59(1), 124]:
(§4) Potentiation of combination effect of compound 2 was expressed for concentrations IC50, IC75, IC90, IC95 by calculation of Combination index (CI) applying Combination Index Theorem for mutually exclusive drugs. Overall CI was expressed by means of weighted average of IC50, IC75, IC90, IC95 [ref: Quantitative analysis of dose-effect relationships: the combined effects of multiple drugs or enzyme inhibitors; Ting-Chao Chou, Paul Talalay: Advances in Enzyme Regulation, Volume 22, 1984, Pages 27-55]: […]

The next test concerns non malignant cells (BJ). The test is described as follows: AnnexinV/PI cell death assay. In kind it is cell-based. The conditions noted are these: ratio Ga:compound 2 1:0, 5 μM gallium salt alone. As to the method: To confirm such findings by an independent method, cell death-inducing potency (cytotoxic efficacy) of DFO and compound 2 have been tested via annexin V/PI staining commonly used as a measure of apoptotic/necrotic cell death. Briefly, cells were seeded in 12-well plate at 100,000 per well, incubated with the selected compounds for 48 hours, then floating cells were spun, adherent cells trypsinized and spun as well followed by the staining with AnnexinV-FITC and PI probes. Cells were then washed with PBS and measured via Fluorescence Activated Sorter.
We have then analyzed the percentage of death cells by the annexinV/PI staining as described in example 7. We have observed a significant potentiation in cell death induction when gallium was combined with compound 2 (Table 14)

Another test relates to BT474 cells. The test is described as follows: crystal violet assay, cellular viability. The conditions noted are these: crystal violet. In kind it is cell-based.
For another test, the system named is MDA-MB-231 cells. Nature of the test: crystal violet assay, cellular viability. The class given is cell-based, human. The conditions noted are these: for mean percentage of surviving cells compared to non-treated controls: crystal violet. As to the method: as §1, §2
For test [2], the system named is human mammary gland cancer cell line MDA-MB-231. The test is described as follows: dose-effect relationship of drugs and mixtures, crystal violet assay, Median-Effect / Combination index. The class given is cell-based. The conditions noted are these: for IC50: Homo sapiens, Chou-Talalay method, read-out: Median-Effect Plot parameter IC50; for IC50 / Median-Effect Plot parameter m (slope): MDA-MB-231, crystal violet, 48 hours; for concentration of the cytostatic at IC75, cytostatic alone: MDA-MB-231. As to the method:
as §3, §4

Where [3] appears, read: Homo sapiens, 48 hrs, crystal violet, read-out: mean percentage of viable cells compared to non-treated controls.

Read-outs that look alike come from different tables or passages of the source.

One may read the IC50 as the concentration that inhibits the measured activity by half. Consider `CC(=O)N(O)CCCCCNC(=O)CCC(=O)N(O)CCCCCNC(=O)CCC(=O)N(O)CCCCCNCCCCCCCCCC[P+](c1ccccc1)(c1ccccc1)c1ccccc1` [Compound 1, Triphenyl(3,14,25-trihydroxy-2,10,13,21,24-pentaoxo-3,9,14,20,25,31-hexaazahentetracontan-41-yl) phosphonium chloride], for which the IC50 in the test on MCF7 cells (Homo sapiens, crystal violet) turned out to be 2200 nM. Further, the viability at 1 µM in the test on MCF7 cells (Homo sapiens, MCF7, 1 μM, 48 hrs, crystal violet, read-out: mean percentage of viable cells compared to non-treated controls) is 83.3%. In addition, the viability at 2 µM in the test on MCF7 cells (Homo sapiens, MCF7, 2 μM, 48 hrs, crystal violet, read-out: mean percentage of viable cells compared to non-treated controls) was 48.2%. Further, in the test with MCF7 cells (Homo sapiens, MCF7, 5 μM, 48 hrs, crystal violet, read-out: mean percentage of viable cells compared to non-treated controls), the viability at 5 µM was determined as 15.2%. Moreover, the viability at 10 µM with MCF7 cells (setting [3]) came to 11.9%.
For `CCCCCCCC[P+](CCCCCCCC)(CCCCCCCC)CCCCCCCCCCNCCCCCN(O)C(=O)CCC(=O)NCCCCCN(O)C(=O)CCC(=O)NCCCCCN(O)C(C)=O` [Compound 11, 3,14,25-trihydroxy-42,42-dioctyl-2,10,13,21,24-pentaoxo-3,9,14,20,25,31-hexaaza-42-phosphapentacontane-31,42-diium dichloride], in the test on MCF7 cells (Homo sapiens, crystal violet), the IC50 came out at 4000 nM.
For the molecule `CC(=O)N(O)CCCCCNC(=O)CCC(=O)N(O)CCCCCNC(=O)CCC(=O)N(O)CCCCCN(CCCCOCCCCCCCCCC[P+](c1ccccc1)(c1ccccc1)c1ccccc1)CCCCOCCCCCCCCCC[P+](c1ccccc1)(c1ccccc1)c1ccccc1` [Compound 15, 3-(diphenyl(3,14,25-trihydroxy-2,10,13,21,24-pentaoxo-31-(4-((10-(triphenylphosphonio)decyl)oxy)butyl)-36-oxa-3,9,14,20,25,31-hexaazahexatetracontan-31-ium-46-yl)phosphonio)benzen-1-ide trichloride], the IC50 with MCF7 cells (Homo sapiens, crystal violet) is 500 nM.
Regarding `CC(=O)ON(CCCCCNC(=O)CCC(=O)N(CCCCCNC(=O)CCC(=O)N(CCCCCN(CCCCCCCCCC[P+](c1ccccc1)(c1ccccc1)c1ccccc1)CCCCCCCCCC[P+](c1ccccc1)(c1ccccc1)c1ccccc1)OC(C)=O)OC(C)=O)C(C)=O` [Compound 16, (15,26-diacetoxy-4-acetyl-2,11,14,22,25-pentaoxo-32-(10-(triphenylphosphonio)decyl)-3-oxa-4,10,15,21,26,32-hexaazadotetracontan-32-ium-42-yl)triphenylphosphonium trichloride], the IC50 in the test with MCF7 cells (Homo sapiens) was determined as 800 nM.
Regarding `CCCCCCCCCCCCCCCC(=O)ON(CCCCCNC(=O)CCC(=O)N(CCCCCNC(=O)CCC(=O)N(CCCCCN(CCCCCCCCCC[P+](c1ccccc1)(c1ccccc1)c1ccccc1)CCCCCCCCCC[P+](c1ccccc1)(c1ccccc1)c1ccccc1)OC(=O)CCCCCCCCCCCCCCC)OC(=O)CCCCCCCCCCCCCCC)C(C)=O` [Compound 17, (39-acetyl-18,21,29,32,41-pentaoxo-17,28-bis(palmitoyloxy)-11-(10-(triphenylphosphonio)decyl)-40-oxa-11,17,22,28,33,39-hexaazahexapentacontyl)triphenylphosphonium trichloride], the IC50 in the test with MCF7 cells (Homo sapiens, crystal violet) was 700 nM.
In the case of `O=c1[nH]cc(F)c(=O)[nH]1` [Fluorouracil, fluorouracil], in test [1] (48 hours), the “Median-Effect Plot parameter m (slope)” value is on record as 0.33 and the 50% inhibitory concentration (IC50) amounted to 48300 nM. Further, the half-inhibitory concentration (IC50) in test [1] (Homo sapiens, BXPC-3, 48 h) was determined as 48300 nM.
As to `O=[N+]([O-])[O-].O=[N+]([O-])[O-].O=[N+]([O-])[O-].[Ga+3]` [Ga(NO3)2, gallium nitrate, reference compound], in the test with non malignant cells (BJ), the “percentage of death cells by annexinV/PI staining” value was 14.45 (5.6).
Turning to `CC(=O)N(O)CCCCCNC(=O)CCC(=O)N(O)CCCCCNC(=O)CCC(=O)N(O)CCCCCN(CCCCCC[P+](c1ccccc1)(c1ccccc1)c1ccccc1)CCCCCC[P+](c1ccccc1)(c1ccccc1)c1ccccc1.[Cl-].[Cl-]` [compound 3, Triphenyl(3,14,25-trihydroxy-2,10,13,21,24-pentaoxo-31-(6-(triphenylphosphonio)hexyl)-3,9,14,20,25,31-hexaazaheptatriacontan-37-yl)phosphonium chloride], the “mean percentage of surviving cells compared to non-treated controls” value (shortened to “mean percentage … to non-treated controls”) in the test with BT474 cells (BT474, 4 μM) is listed as 101.7%; in the test on BT474 cells (BT474, 6 μM), 109.1%; in the test on BT474 cells (BT474, 8 μM), 104.1%; in the test on BT474 cells (BT474, 10 μM), 99.2%; in the test with BT474 cells (BT474, 20 μM) it was 91.5%; in the test on BT474 cells (BT474, 40 μM) it was 74.2%. In addition, the “mean percentage … to non-treated controls” value in the test with BT474 cells (BT474, 60 μM) was found to be 58.9%; with BT474 cells (BT474, 80 μM), 49.6%; in the test with BT474 cells (BT474, 100 μM), 47.8%; with MCF7 cells (MCF7, 4 μM, crystal violet) it was 100.4%; in the test with MCF7 cells (MCF7, 6 μM, crystal violet), 99.1%; in the test with MCF7 cells (MCF7, 8 μM, crystal violet) it was 98.2%. Besides, the “mean percentage … to non-treated controls” value was 84.0% in the test on MCF7 cells (MCF7, 20 μM, crystal violet); 74.6% in the test on MCF7 cells (MCF7, 40 μM, crystal violet); 55.2% with MCF7 cells (MCF7, 60 μM, crystal violet); 43.2% with MCF7 cells (MCF7, 80 μM, crystal violet); 37.9% in the test on MCF7 cells (MCF7, 100 μM, crystal violet); 97.7% with MDA-MB-231 cells (MDA-MB-231, 4 μM). The “mean percentage … to non-treated controls” value in the test on MDA-MB-231 cells (MDA-MB-231, 6 μM) is 95.3%; with MDA-MB-231 cells (MDA-MB-231, 8 μM), 103.1%; with MDA-MB-231 cells (MDA-MB-231, 10 μM) it was 97.4%; with MDA-MB-231 cells (MDA-MB-231, 20 μM), 98.9%; in the test with MDA-MB-231 cells (MDA-MB-231, 40 μM) it was 91.3%; in the test with MDA-MB-231 cells (MDA-MB-231, 60 μM) it was 86.5%. Moreover, the “mean percentage … to non-treated controls” value was found to be 77.2% with MDA-MB-231 cells (MDA-MB-231, 80 μM) and 76.0% in the test on MDA-MB-231 cells (MDA-MB-231, 100 μM). The IC50 in the test on BT474 cells (Homo sapiens, BT-474, BT474, 48 hours, read-out: IC50 cellular viability) was 83500 nM; with MCF7 cells (Homo sapiens, crystal violet), 70400 nM; in the test with MDA-MB-231 cells (Homo sapiens, MDA-MB-231, 48 h, read-out: IC50 cellular viability), 232000 nM. In the test with MCF7 cells (setting [3]), the viability at 10 µM came to 93.9%.
For the molecule `COc1cccc2c1C(=O)c1c(O)c3c(c(O)c1C2=O)C[C@@](O)(C(=O)CO)C[C@@H]3O[C@H]1C[C@H](N)[C@H](O)[C@H](C)O1` [doxorubicin], in test [2], the concentration for half-maximal inhibition (IC50) is 319 nM; the “concentration of the cytostatic at IC75, cytostatic alone” value was determined as 3578.9 nM; the “Median-Effect Plot parameter m (slope)” value is 0.4543.
In the same order, the values of `CC(=O)O[C@H]1C(=O)[C@@]2(C)[C@H]([C@H](OC(=O)c3ccccc3)[C@]3(O)C[C@H](OC(=O)[C@H](O)[C@@H](NC(=O)c4ccccc4)c4ccccc4)C(C)=C1C3(C)C)[C@]1(OC(C)=O)CO[C@@H]1C[C@@H]2O` [paclitaxel] are 18.9 nM, 142 nM and 0.5451.
